Test results: the supplement of paper PMC10307832

How the values were obtained:
[1] = compound: C1=CC2=NC=CN=C2C=C1/C=C/3\C(=O)NC(=O)S3 + COc1cc2c(Oc3ccc(NC(=O)C4(C(=O)Nc5ccc(F)cc5)CC4)cc3F)ccnc2cc1OCCCN1CCOCC1 [Foretinib] (partner 0.25 µM); experiment: relative viability (nuclei count vs DMSO), 5 days (fraction); higher = more cells survive
Method in brief: (§1)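 Values are medians from duplicate plates. Each reflects relative viability, defined as the nuclei count of treated wells over that of vehicle wells. Lung cancer cell lines in 1536-well plates were pin-tool dosed one day after seeding with one drug alone or with a fixed anchor-drug dose plus five library-drug doses (not always all listed) in √10 steps, then fixed, stained and imaged at 4× after 5 days.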

BGJ398 + Tozasertib = compound: CCN1CCN(c2ccc(Nc3cc(N(C)C(=O)Nc4c(Cl)c(OC)cc(OC)c4Cl)ncn3)cc2)CC1 [BGJ398] + Cc1cc(Nc2cc(N3CCN(C)CC3)nc(Sc3ccc(NC(=O)C4CC4)cc3)n2)n[nH]1 [Tozasertib] (partner 0.1 µM); experiment: as above
Method in brief: as §1

Cell Line | relative viability ([1]; first compound 0.02 µM) | relative viability ([1]; first compound 0.06325 µM) | relative viability ([1]; first compound 0.2 µM) | relative viability ([1]; first compound 0.6325 µM) | relative viability ([1]; first compound 2 µM) | relative viability (BGJ398 + Tozasertib; first compound 0.01 µM) | relative viability (BGJ398 + Tozasertib; first compound 0.03162 µM) | relative viability (BGJ398 + Tozasertib; first compound 0.1 µM) | relative viability (BGJ398 + Tozasertib; first compound 0.3162 µM) | relative viability (BGJ398 + Tozasertib; first compound 1 µM)
NCI-H1975 | 0.904 | 1.03 | 0.992 | 0.866 | 0.84 | 0.774 | 0.758 | 0.695 | 0.5 | 0.415
CAL-12T | 1.07 | 1.05 | 1.09 | 1.01 | 1.15 | 0.285 | 0.324 | 0.279 | 0.233 | 0.243
NCI-H1623 | 0.756 | 0.855 | 0.953 | 0.82 | 0.799 | 0.427 | 0.407 | 0.448 | 0.455 | 0.447
HCC-44 |  |  |  |  |  | 0.77 | 0.947 | 1.07 | 1.1 | 0.698
EKVX | 0.753 | 0.602 | 0.773 | 0.541 | 0.746 | 0.387 | 0.421 | 0.431 | 0.436 | 0.389
NCI-H1651 | 0.774 | 0.734 | 0.911 | 0.796 | 0.75 | 0.732 | 0.629 | 0.633 | 0.575 | 0.581
NCI-H1944 | 0.814 | 0.78 | 0.885 | 0.795 | 0.903 | 0.237 | 0.244 | 0.229 | 0.27 | 0.273
NCI-H1703 | 0.38 | 0.442 | 0.34 | 0.295 | 0.324 |  |  |  |  | 
Calu-6 | 0.848 | 0.866 | 0.843 | 0.864 | 0.928 |  |  |  |  | 
EBC-1 |  | 0.105 | 0.0907 | 0.0919 | 0.11 |  |  |  |  | 
SW 1573 | 0.893 | 1.22 | 0.911 | 0.804 | 0.487 | 0.182 | 0.171 | 0.185 | 0.189 | 0.171
A-427 | 1.08 | 1.11 | 1.13 | 1.01 | 1.06 | 0.192 | 0.153 | 0.162 | 0.179 | 0.152
NCI-H2347 | 0.843 | 0.77 | 0.948 | 0.86 | 0.634 | 0.698 | 0.575 | 0.515 | 0.621 | 0.567
NCI-H1355 | 0.816 | 0.976 | 1.02 | 0.936 | 0.929 | 0.57 | 0.566 | 0.455 | 0.491 | 0.538
NCI-H358 | 0.875 | 0.648 | 0.672 | 0.613 | 0.445 | 0.0959 | 0.0952 | 0.109 | 0.102 | 0.1
PC-3 [JPC-3] | 0.997 | 1.14 | 1.02 | 1 | 1.06 | 0.958 |  | 0.867 | 0.829 | 0.842
NCI-H2228 | 0.834 | 1.05 | 0.961 | 0.841 | 0.749 | 0.235 | 0.255 | 0.224 | 0.188 | 0.204
HOP-62 | 1.06 | 1.22 | 1.11 | 1.01 | 1.07 | 0.375 | 0.399 | 0.411 | 0.395 | 0.364

Cell Line | relative viability ([1]; first compound 0.02 µM) | relative viability ([1]; first compound 0.06325 µM) | relative viability ([1]; first compound 0.2 µM) | relative viability ([1]; first compound 0.6325 µM) | relative viability ([1]; first compound 2 µM) | relative viability (BGJ398 + Tozasertib; first compound 0.01 µM) | relative viability (BGJ398 + Tozasertib; first compound 0.03162 µM) | relative viability (BGJ398 + Tozasertib; first compound 0.1 µM) | relative viability (BGJ398 + Tozasertib; first compound 0.3162 µM) | relative viability (BGJ398 + Tozasertib; first compound 1 µM)
HARA | 0.857 | 0.83 | 0.888 | 0.841 | 1.02 | 0.0926 | 0.116 | 0.0915 | 0.0847 | 0.0857
NCI-H838 | 1.02 | 1.08 | 1 | 1.02 | 0.874 | 0.317 | 0.305 | 0.262 | 0.234 | 0.201
NCI-H1755 | 0.807 | 0.942 | 0.923 | 0.897 | 0.864 | 0.563 | 0.646 | 0.552 | 0.623 | 0.546
HCC-78 | 0.54 | 0.469 | 0.538 | 0.534 | 0.4 | 0.355 | 0.461 | 0.445 | 0.419 | 0.476
IA-LM | 1.15 | 1.28 | 1.15 | 1.2 | 1.25 |  |  |  |  | 
NCI-H322M | 0.969 | 0.918 | 0.932 | 0.906 | 0.669 | 0.479 | 0.462 | 0.461 | 0.525 | 0.521
NCI-H3122 | 0.963 | 0.985 | 0.917 | 0.867 | 0.96 | 0.383 | 0.403 | 0.377 | 0.407 | 0.379
COR-L23 | 0.94 | 0.961 | 0.96 | 0.934 | 0.979 | 0.216 | 0.248 | 0.205 | 0.188 | 0.182
NCI-H2087 | 1.12 | 0.974 | 0.992 | 0.975 | 0.931 | 0.219 | 0.255 | 0.24 | 0.26 | 0.277
LC-2-ad | 0.889 | 0.951 | 0.995 | 0.917 | 0.699 | 0.451 | 0.489 | 0.486 | 0.474 | 0.374
NCI-H1915 | 1.11 | 1.12 | 1.15 | 1.09 | 1.04 | 0.446 | 0.438 | 0.433 | 0.404 | 0.416
NCI-H1793 | 0.633 | 0.601 | 0.721 | 0.634 | 0.642 | 0.337 | 0.351 | 0.3 | 0.3 | 0.287
NCI-H2023 | 0.714 | 0.832 | 0.765 | 0.781 | 0.51 | 0.309 | 0.345 | 0.301 | 0.232 | 0.255
COR-L 105 | 1 | 1.39 | 0.9 | 0.906 | 1.06 | 0.291 | 0.346 | 0.339 | 0.418 | 0.324
RERF-LC-KJ | 0.831 | 0.825 | 0.874 | 0.814 | 0.695 | 0.455 | 0.558 | 0.479 | 0.441 | 0.533
LXF-289 | 0.925 | 0.92 | 0.953 | 0.982 | 0.908 | 0.173 | 0.189 | 0.207 | 0.167 | 0.196
PC-14 | 0.934 | 1.07 | 0.961 | 1.01 | 0.893 | 0.575 |  | 0.666 |  | 0.621
